From PMC8920385, “Design, synthesis and biological evaluation of a series of dianilinopyrimidines as EGFR inhibitors” (Journal of Enzyme Inhibition and Medicinal Chemistry, 2022)

Assays:
[1] = test system: PC-3 cells; assay: Cytotoxicity evaluation (MTT assay), PC-3; format: cell-based; conditions: Homo sapiens, mean ± SD of three replicates
[2] = test system: A549 cells; assay: Cell apoptosis analysis, Annexin V-FITC/PI flow cytometry; format: cell-based, Human; conditions: A549, 10 μM, 48 h
From the text: Apoptosis of A549 cells is an efficient route to clear out the extra cancer cells in the tissue homeostasis.

[3] = test system: L02 cells; assay: Cytotoxicity evaluation (MTT assay), L02 normal cells; conditions: Homo sapiens, L02, read-out: IC50 L02
Experimental: Three tumour cells with high expression of EGFR^wt were used to test the antitumor activity of the compounds including, A549 (Human non-small-cell lung cancer cell line) cells, PC-3 (Human prostate cancer cell line) cells, and HepG2 (Human hepatocellular carcinomas cell line) cells. They were all purchased from the Shanghai Cell Bank of the Chinese Academy of Sciences. L02 (normal human liver cell line) cells were also used to evaluate the cytotoxicity. […] The IC50 values were calculated from the dose − response curve under Graph-Pad Prism.

[4] = test system: HepG2 cells; assay: Cytotoxicity evaluation (MTT assay), HepG2; format: cell-based; conditions: Homo sapiens, mean ± SD of three replicates
[5] = test system: A549 cells; assay: Cytotoxicity evaluation (MTT assay), A549; format: cell-based; conditions: Homo sapiens, mean ± SD of three replicates
[6] = molecular target: T1, wild type EGFR tyrosine kinase (EGFR^wt) (Homo sapiens, UniProt P00533); assay: In vitro EGFR^wt-TK assay (ELISA); format: biochemical; conditions: mean ± SD of three replicates; for EGFR^wt-TK inhibition rate / inhibition at 1 µM: 1 μM; for inhibition at 1 µM: read-out: EGFR^wt-TK inhibition rate
T1 construct: purchased PTM Bio; Co., Ltd
T1 sequence (P00533 25-1210): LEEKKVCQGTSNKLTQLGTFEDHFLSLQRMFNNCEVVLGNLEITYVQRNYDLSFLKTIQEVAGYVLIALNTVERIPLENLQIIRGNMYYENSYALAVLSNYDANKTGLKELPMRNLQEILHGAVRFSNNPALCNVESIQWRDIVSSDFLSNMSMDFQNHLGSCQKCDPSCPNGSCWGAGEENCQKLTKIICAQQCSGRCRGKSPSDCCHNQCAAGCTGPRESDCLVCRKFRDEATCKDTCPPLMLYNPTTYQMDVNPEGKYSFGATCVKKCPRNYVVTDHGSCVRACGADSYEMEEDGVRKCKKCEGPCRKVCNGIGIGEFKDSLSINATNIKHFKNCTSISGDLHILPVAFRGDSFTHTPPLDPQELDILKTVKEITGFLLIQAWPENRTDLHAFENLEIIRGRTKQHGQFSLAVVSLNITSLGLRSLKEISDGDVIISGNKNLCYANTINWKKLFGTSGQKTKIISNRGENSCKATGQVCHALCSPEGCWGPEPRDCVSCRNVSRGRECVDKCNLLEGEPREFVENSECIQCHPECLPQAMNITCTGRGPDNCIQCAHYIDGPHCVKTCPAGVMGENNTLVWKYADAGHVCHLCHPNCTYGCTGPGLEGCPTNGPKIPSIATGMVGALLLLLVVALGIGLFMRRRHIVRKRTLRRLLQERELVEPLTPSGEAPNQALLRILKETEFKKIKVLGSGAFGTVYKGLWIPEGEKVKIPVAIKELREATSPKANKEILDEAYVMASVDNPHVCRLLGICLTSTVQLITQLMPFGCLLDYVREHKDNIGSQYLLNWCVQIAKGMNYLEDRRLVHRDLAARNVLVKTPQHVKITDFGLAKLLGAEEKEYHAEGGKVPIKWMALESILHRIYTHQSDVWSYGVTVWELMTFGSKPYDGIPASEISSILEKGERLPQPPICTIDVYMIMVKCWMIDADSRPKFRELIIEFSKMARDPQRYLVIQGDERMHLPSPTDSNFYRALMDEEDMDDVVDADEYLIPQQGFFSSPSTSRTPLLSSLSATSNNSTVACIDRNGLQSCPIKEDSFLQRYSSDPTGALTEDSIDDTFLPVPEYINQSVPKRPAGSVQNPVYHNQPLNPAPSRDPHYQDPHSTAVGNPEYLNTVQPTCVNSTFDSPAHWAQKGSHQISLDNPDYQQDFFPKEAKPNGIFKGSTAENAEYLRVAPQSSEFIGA

[7] = test system: A549 cells; assay: Cell cycle analysis, PI flow cytometry; conditions: 48 h
Experimental: The experimental data of apoptosis and cell cycle for A549 cells were evaluated in BD Accuri C6 flow cytometry (American BD Corporation Shanghai Co., Ltd.), provided by the School of Pharmaceutical Sciences, Guizhou University.
(B) Profiles obtained by FACS. The percentages for different phases of the cell cycle were illustrated in the histogram.

| SMILES | IC50 [1] [µM] | early apoptotic cells (Q2-4) [2] [%] | late apoptotic cells (Q2-2) [2] [%] | IC50 [3] [µM] | IC50 [4] [µM] | melting point [°C] | IC50 [5] [µM] | EGFR^wt-TK inhibition rate [6] [%] | inhibition at 1 µM [6] [%] | IC50 [6] [µM] | Percentage of cells in G2/M phase ([7]; A549, 1 μM) [%] | Percentage of cells in G2/M phase ([7]; A549, 10 μM) [%] |
| --- | --- | --- | --- | --- | --- | --- | --- | --- | --- | --- | --- | --- |
| CNC(=O)c1ccsc1Nc1nc(Nc2ccc(NC(=O)c3cccc(F)c3)cc2)ncc1C(F)(F)F [4c, 2-{2-[4–(3-Fluoro-benzoylamino)-phenylamino]-5-trifluoromethyl-pyrimidin-4-ylamino}-thiophene-3-carboxylic acid methylamide] | 2.46 ± 0.42 | 10.70 | 57.84 | > 40 | 2.21 ± 0.5 | 217.1 to 219 | 0.56 ± 0.12 | 61.69 ± 2.08 | > 50 | 0.32 ± 0.047 | 51.09 | 59.32 |
| COc1cc2ncnc(Nc3ccc(F)c(Cl)c3)c2cc1OCCCN1CCOCC1 [Gefitinib, reference compound] | – | 7.77 | 10.62 | – | – | – | – | – | – | – | – | 21.71 |
| CCCCCCNc1c(Nc2ccc(Nc3ncc(C(F)(F)F)c(Nc4sccc4C(=O)NC)n3)cc2)c(=O)c1=O [6b, 2-{2-[4-(2-Hexylamino-3,4-dioxo-cyclobut-1-enylamino)-phenylamino]-5-trifluoromethyl-pyrimidin-4-ylamino}-thiophene-3-carboxylic acid methylamide] | > 20 | – | – | > 40 | > 20 | > 250 | > 20 | – | 17.4 ± 0.32 | – | – | – |
| CNC(=O)c1ccsc1Nc1nc(Nc2ccc(Nc3c(NCCNC(=O)C4CCCC4)c(=O)c3=O)cc2)ncc1C(F)(F)F [8c, 2-[2–(4-{2-[2-(Cyclopentanecarbonyl-amino)-ethylamino]-3,4-dioxo-cyclobut-1-enylamino}-phenylamino)-5-trifluoromethyl-pyrimidin-4-ylamino]-thiophene-3-carboxylic acid methylamide] | 9.69 ± 1.13 | – | – | > 40 | 9.54 ± 0.91 | > 250 | 7.32 ± 0.65 | – | 28.1 ± 1.27 | – | – | – |
| CNC(=O)c1ccsc1Nc1nc(Nc2ccc(Nc3c(NC4CCCCC4)c(=O)c3=O)cc2)ncc1C(F)(F)F [6f, 2-{2-[4-(2-Cyclohexylamino-3,4-dioxo-cyclobut-1-enylamino)-phenylamino]-5-trifluoromethyl-pyrimidin-4-ylamino}-thiophene-3-carboxylic acid methylamide] | > 20 | – | – | > 40 | > 20 | > 250 | 18.1 ± 2.45 | – | 34.1 ± 1.29 | – | – | – |
| CNC(=O)c1ccsc1Nc1nc(Nc2ccc(NC(=O)c3ccc(F)cc3)cc2)ncc1C(F)(F)F [4d, 2-{2-[4-(4-Fluoro-benzoylamino)-phenylamino]-5-trifluoromethyl-pyrimidin-4-ylamino}-thiophene-3-carboxylic acid methylamide] | > 20 | – | – | > 40 | > 20 | 233.5 to 235.3 | > 20 | – | 7.59 ± 0.25 | – | – | – |
| CNC(=O)c1ccsc1Nc1nc(Nc2ccc(Nc3c(NC4CCCC4)c(=O)c3=O)cc2)ncc1C(F)(F)F [6e, 2-{2-[4-(2-Cyclopentylamino-3,4-dioxo-cyclobut-1-enylamino)-phenylamino]-5-trifluoromethyl-pyrimidin-4-ylamino}-thiophene-3-carboxylic acid methylamide] | 9.24 ± 0.86 | – | – | > 40 | 9 ± 0.78 | > 250 | 7.14 ± 0.92 | 53.17 ± 3.05 | > 50 | 0.74 ± 0.1 | – | – |
| CNC(=O)c1ccsc1Nc1nc(Nc2ccc(NC(=O)c3ccc(OC)cc3)cc2)ncc1C(F)(F)F [4a, 2-{2-[4-(4-Methoxy-benzoylamino)-phenylamino]-5-trifluoromethyl-pyrimidin-4-ylamino}-thiophene-3-carboxylic acid methylamide] | 12.3 ± 0.89 | – | – | > 40 | 11.5 ± 0.77 | > 250 | 9.32 ± 0.68 | – | 31.6 ± 3.27 | – | – | – |
| CNC(=O)c1ccsc1Nc1nc(Nc2ccc(Nc3c(NCCNC(=O)OC(C)(C)C)c(=O)c3=O)cc2)ncc1C(F)(F)F [6i, [2-(2-{4-[4-(3-Methylcarbamoyl-thiophen-2-ylamino)-5-trifluoromethyl-pyrimidin-2-ylamino]-phenylamino}-3,4-dioxo-cyclobut-1-enylamino)-ethyl]-carbamic acid tert-butyl ester] | 5.33 ± 0.47 | – | – | > 40 | 5.24 ± 0.51 | > 250 | 3.11 ± 0.48 | 57.37 ± 1.82 | > 50 | 0.66 ± 0.13 | – | – |
